Results: US10596171B2, “Cap-dependent endonuclease inhibitors” (priority 2018, dated 2020)

Test system: influenza B virus
Assay: microbe, parasite or virus in culture
Type: cell-based
Conditions: MDCK, 72 h, read-out: EC50 (reduce virus-induced CPE by 50%)

Compound | EC50 [µM]
O=C1c2c(O)c(=O)ccn2N(C2c3ccc(F)cc3CSc3c(Cl)cccc32)CC12CC2 (stereo not drawn) [Compound 3] | < 0.1
O=C1c2c(O)c(=O)ccn2N(C2c3ccccc3SCc3c2ccc(F)c3F)CC12CC2COCc1ccccc1 (stereo not drawn) [Compound 34] | 0.1 to 1
Cc1cccc2c1SCc1c(ccc(F)c1F)C2N1CC2(CC2)C(=O)c2c(O)c(=O)ccn21 (stereo not drawn) [Compound 16] | 0.1 to 1
O=C(O)C1CC12CN(C1c3ccccc3SCc3c1ccc(F)c3F)n1ccc(=O)c(O)c1C2=O (stereo not drawn) [Compound 33] | 0.1 to 1
O=C1c2c(O)c(=O)ccn2N(C2c3ccccc3SCc3c2ccc(Cl)c3F)CC12CC2 (stereo not drawn) [Compound 19] | 0.1 to 1
CC1N(C2c3ccc(F)c(F)c3CSc3c(F)cccc32)n2ccc(=O)c(O)c2C(=O)C12CC2 (stereo not drawn) [Compound 26] | 0.1 to 1
O=C1c2c(O)c(=O)ccn2N(C2c3cccc(F)c3CSc3c(Cl)cccc32)CC12CC2 (stereo not drawn) [Compound 12] | 0.1 to 1
Cc1cc(=O)c(O)c2n1N(C1c3ccc(F)c(F)c3CSc3c(F)cccc31)CC1(CC1)C2=O (stereo not drawn) [Compound 30] | 0.1 to 1
Cc1cc(=O)c(O)c2n1N(C1c3ccccc3SCc3c1ccc(F)c3F)CC1(CC1)C2=O (stereo not drawn) [Compound 28] | 0.1 to 1
O=C1c2c(O)c(=O)ccn2N(C2c3ccccc3SCc3cccc(Br)c32)CC12CC2 (stereo not drawn) [Compound 29] | 0.1 to 1
O=C1c2c(O)c(=O)ccn2N(C2c3ccc(Cl)c(F)c3CSc3c(F)cccc32)CC12CC2 (stereo not drawn) [Compound 24] | < 0.1
CC1CC12CN(C1c3ccc(F)c(F)c3CSc3c(F)cccc31)n1ccc(=O)c(O)c1C2=O (stereo not drawn) [Compound 35] | < 0.1
O=C1c2c(O)c(=O)ccn2N(C2c3ccc(F)cc3CSc3ccccc32)CC12CC2 (stereo not drawn) [Compound 8] | < 0.1
CCC1N(C2c3ccccc3SCc3c2ccc(F)c3F)n2ccc(=O)c(O)c2C(=O)C12CC2 (stereo not drawn) [Compound 22] | 0.1 to 1
O=C1c2c(O)c(=O)ccn2N(C2c3ccccc3CSc3c(Cl)cccc32)CC12CC2 (stereo not drawn) [Compound 13] | 0.1 to 1
O=C1c2c(O)c(=O)ccn2N(C2c3ccc(Cl)cc3CSc3c(F)cccc32)CC12CC2 (stereo not drawn) [Compound 14] | < 0.1
O=C1c2c(O)c(=O)ccn2N(C2c3ccccc3CSc3c(F)cccc32)CC12CC2 (stereo not drawn) [Compound 9] | < 0.1
CCOC(=O)C1CC12CN(C1c3ccccc3SCc3c1ccc(F)c3F)n1ccc(=O)c(O)c1C2=O (stereo not drawn) [Compound 32] | 0.1 to 1
CC1N(C2c3ccccc3SCc3c2ccc(F)c3F)n2ccc(=O)c(O)c2C(=O)C12CC2 (stereo not drawn) [Compound 21] | 0.1 to 1
O=C1c2c(O)c(=O)ccn2N(C2c3ccccc3SCc3c(F)cccc32)CC12CC2 (stereo not drawn) [Compound 1, 1-(1-Fluoro-5,11-dihydro-10-thia-dibenzo[a,d]cyclohepten-5-yl)-5-hydroxy-3,3-cyclopropyl-2,3-dihydro-1H-pyrido[1,2-b]pyridazine-4,6-dione] | 0.1 to 1

Compound | EC50 [µM]
Cc1cccc2c1SCc1c(ccc(F)c1F)C2N1CC2(CC2)C(=O)c2c(O)c(=O)cc(C)n21 (stereo not drawn) [Compound 31] | 0.1 to 1
CCC1CC12CN(C1c3ccccc3SCc3c1ccc(F)c3F)n1ccc(=O)c(O)c1C2=O (stereo not drawn) [Compound 37] | < 0.1
O=C1c2c(O)c(=O)ccn2N(C2c3ccc(F)c(F)c3CSc3c(Cl)cccc32)CC12CC2 (stereo not drawn) [Compound 18] | 0.1 to 1
O=C1c2c(O)c(=O)ccn2N(C2c3ccc(Cl)c(F)c3CSc3c(Cl)cccc32)CC12CC2 (stereo not drawn) [Compound 23] | 0.1 to 1
O=C1c2c(O)c(=O)ccn2N(C2c3ccc(Cl)cc3CSc3ccccc32)CC12CC2 (stereo not drawn) [Compound 4] | < 0.1
Cc1cccc2c1SCc1c(ccc(F)c1F)C2N1CC2(CC2C)C(=O)c2c(O)c(=O)ccn21 (stereo not drawn) [Compound 36] | 0.1 to 1
[2H]c1c([2H])c([2H])c2c(c1[2H])SCc1c(ccc(F)c1F)[C@@H]2N1CC2(CC2)C(=O)c2c(O)c(=O)ccn21 [Compound 39] | < 0.1
O=C1c2c(O)c(=O)ccn2N(C2c3ccc(F)cc3COc3c(Cl)cccc32)CC12CC2 (stereo not drawn) [Compound 15] | < 0.1
Cc1cccc2c1SCc1c(ccc(F)c1F)C2N1C(C)C2(CC2)C(=O)c2c(O)c(=O)ccn21 (stereo not drawn) [Compound 27] | 0.1 to 1
Cc1cccc2c1SCc1ccccc1C2N1CC2(CC2)C(=O)c2c(O)c(=O)ccn21 (stereo not drawn) [Compound 11] | 0.1 to 1
Cc1cccc2c1SCc1cc(F)ccc1C2N1CC2(CC2)C(=O)c2c(O)c(=O)ccn21 (stereo not drawn) [Compound 7] | < 0.1
CC1CC12CN(C1c3ccccc3SCc3c1ccc(F)c3F)n1ccc(=O)c(O)c1C2=O (stereo not drawn) [Compound 20] | 0.1 to 1
O=C1c2c(O)c(=O)ccn2N(C2c3ccc(F)cc3CSc3c(F)cccc32)CC12CC2 (stereo not drawn) [Compound 5] | < 0.1
Cc1cccc2c1SCc1cc(Cl)ccc1C2N1CC2(CC2)C(=O)c2c(O)c(=O)ccn21 (stereo not drawn) [Compound 6] | 0.1 to 1
COCC1CC12CN(C1c3ccccc3SCc3c1ccc(F)c3F)n1ccc(=O)c(O)c1C2=O (stereo not drawn) [Compound 38] | < 0.1
O=C1c2c(O)c(=O)ccn2N(C2c3ccc(F)c(F)c3CSc3c(F)cccc32)CC12CC2 (stereo not drawn) [Compound 17] | < 0.1
Cc1cccc2c1SCc1c(F)cccc1C2N1CC2(CC2)C(=O)c2c(O)c(=O)ccn21 (stereo not drawn) [Compound 10] | 0.1 to 1
O=C1c2c(O)c(=O)ccn2N(C2c3ccccc3SCc3c2ccc(F)c3F)CC12CC2 (stereo not drawn) [Compound 2] | < 0.1
C=CC1N(C2c3ccccc3SCc3c2ccc(F)c3F)n2ccc(=O)c(O)c2C(=O)C12CC2 (stereo not drawn) [Compound 25] | 0.1 to 1
